Experimental data taken from patent US20100280975A1, “SYSTEMS FOR CLINICAL TRIALS” (WisTa Laboratories Ltd., priority 2007, published 2010).
“And” between values parts separate entries of the source, which are not always exact repeats. Equal entries are not always repeated.

System: mild and moderate dementia of the Alzheimer type
Test: rember™ Phase 2 study: ADAS-cog change over 24 weeks
Conditions: for Estimate, change in ADAS-cog score vs intercept, mixed effects / Estimate, change in ADAS-cog score vs intercept, least squares / Estimate, change in ADAS-cog score vs intercept, linear least squares / Estimate, change in ADAS-cog score vs intercept, linear mixed effects: with interaction term; for Estimate, ADAS-cog change vs placebo, LM (ANCOVA) analysis / Estimate, change in ADAS-cog score vs intercept (placebo), linear least squares / Estimate, change in ADAS-cog score vs intercept (placebo), linear mixed effects: without interaction term; for Estimate, ADAS-cog change vs placebo, LM (ANCOVA) analysis: 24-week assessment data only
[1] = ITT/LOCF, week 24, CDR-mild, 60 mg tid
[2] = ITT/LOCF, week 24, CDR-mild, low (100 mg) tid
[3] = ITT/LOCF, week 24, CDR-moderate, 30 mg tid
[4] = ITT/LOCF, week 24, CDR-moderate, 60 mg tid
[5] = ITT/LOCF, week 24, CDR-moderate, low (100 mg) tid
[6] = ITT/LOCF, week 24, low (100 mg) tid
[7] = ITT/OC, CDR-moderates, mixed-effects model, low (100 mg) tid
[8] = ITT/OC, week 24, CDR-mild, 30 mg tid
[9] = ITT/OC, week 24, CDR-mild, 60 mg tid
[10] = ITT/OC, week 24, CDR-mild, low (100 mg) tid
[11] = ITT/OC, week 24, CDR-moderate, 30 mg tid
[12] = ITT/OC, week 24, CDR-moderate, 60 mg tid
[13] = ITT/OC, week 24, CDR-moderate, low (100 mg) tid
[14] = ITT/OC, week 24, low (100 mg) tid

CN(C)c1ccc2nc3ccc(=[N+](C)C)cc-3sc2c1 [rember™, methylthioninium chloride]
Estimate, change in ADAS-cog score vs intercept, mixed effects (ITT/LOCF, week 24, CDR-mild, 30 mg tid): 0.46 ADAS-cog units | Estimate, change in ADAS-cog score vs intercept, least squares [1]: −0.73 ADAS-cog units | Estimate, change in ADAS-cog score vs intercept, mixed effects [1]: −0.73 ADAS-cog units | Estimate, change in ADAS-cog score vs intercept, least squares [2]: −0.18 ADAS-cog units | Estimate, change in ADAS-cog score vs intercept, mixed effects [2]: −0.18 ADAS-cog units | Estimate, change in ADAS-cog score vs intercept, least squares [3]: −1.05 ADAS-cog units | Estimate, change in ADAS-cog score vs intercept, mixed effects [3]: −1.05 ADAS-cog units | Estimate, change in ADAS-cog score vs intercept, least squares [4]: −3.70 ADAS-cog units | Estimate, change in ADAS-cog score vs intercept, mixed effects [4]: −3.70 ADAS-cog units | Estimate, change in ADAS-cog score vs intercept, least squares [5]: 1.06 ADAS-cog units | Estimate, change in ADAS-cog score vs intercept, mixed effects [5]: 1.06 ADAS-cog units | Estimate, ADAS-cog change vs placebo, LM (ANCOVA) analysis (ITT/LOCF, 30 mg tid): −0.04 ADAS-cog units | Estimate, ADAS-cog change vs placebo, LM (ANCOVA) analysis (ITT/LOCF, low (100 mg) tid): −0.78 ADAS-cog units | Estimate, change in ADAS-cog score vs intercept (placebo), linear least squares (ITT/LOCF, week 24, 30 mg tid): 0.04 ADAS-cog units | Estimate, change in ADAS-cog score vs intercept (placebo), linear mixed effects (ITT/LOCF, week 24, 30 mg tid): 0.04 ADAS-cog units | Estimate, change in ADAS-cog score vs intercept (placebo), linear least squares (ITT/LOCF, week 24, 60 mg tid): −1.18 ADAS-cog units | Estimate, change in ADAS-cog score vs intercept (placebo), linear mixed effects (ITT/LOCF, week 24, 60 mg tid): −1.18 ADAS-cog units | Estimate, change in ADAS-cog score vs intercept (placebo), linear least squares [6]: −0.03 ADAS-cog units | Estimate, change in ADAS-cog score vs intercept (placebo), linear mixed effects [6]: −0.03 ADAS-cog units | ADAS-cog change from baseline at 24 weeks (ITT/OC, CDR-moderates, mixed-effects model, 30 mg tid): 1.03 ADAS-cog units | ADAS-cog change from baseline at 24 weeks (ITT/OC, CDR-moderates, mixed-effects model, 60 mg tid): −0.36 ADAS-cog units | ADAS-cog change from baseline at 24 weeks [7]: 4.6 ADAS-cog units and 4.63 ADAS-cog units | ADAS-cog effect size at 24 weeks (vs placebo) [7]: −0.42 ADAS-cog units | Estimate, change in ADAS-cog score vs intercept, linear least squares [8]: 0.43 ADAS-cog units | Estimate, change in ADAS-cog score vs intercept, linear mixed effects [8]: 0.33 ADAS-cog units | Estimate, change in ADAS-cog score vs intercept, linear least squares [9]: −0.66 ADAS-cog units | Estimate, change in ADAS-cog score vs intercept, linear mixed effects [9]: −0.77 ADAS-cog units | Estimate, change in ADAS-cog score vs intercept, linear least squares [10]: −0.05 ADAS-cog units | Estimate, change in ADAS-cog score vs intercept, linear mixed effects [10]: −0.21 ADAS-cog units | Estimate, change in ADAS-cog score vs intercept, linear least squares [11]: 1.11 ADAS-cog units | Estimate, change in ADAS-cog score vs intercept, linear mixed effects [11]: −1.09 ADAS-cog units | Estimate, change in ADAS-cog score vs intercept, linear least squares [12]: −2.74 ADAS-cog units | Estimate, change in ADAS-cog score vs intercept, linear mixed effects [12]: −3.23 ADAS-cog units | Estimate, change in ADAS-cog score vs intercept, linear least squares [13]: 0.99 ADAS-cog units | Estimate, change in ADAS-cog score vs intercept, linear mixed effects [13]: 1.13 ADAS-cog units | Estimate, change in ADAS-cog score vs intercept (placebo), linear least squares (ITT/OC, week 24, 30 mg tid): 0.00 ADAS-cog units | Estimate, change in ADAS-cog score vs intercept (placebo), linear mixed effects (ITT/OC, week 24, 30 mg tid): −0.07 ADAS-cog units | Estimate, change in ADAS-cog score vs intercept (placebo), linear least squares (ITT/OC, week 24, 60 mg tid): −0.95 ADAS-cog units | Estimate, change in ADAS-cog score vs intercept (placebo), linear mixed effects (ITT/OC, week 24, 60 mg tid): −1.13 ADAS-cog units | Estimate, change in ADAS-cog score vs intercept (placebo), linear least squares [14]: 0.08 ADAS-cog units | Estimate, change in ADAS-cog score vs intercept (placebo), linear mixed effects [14]: −0.04 ADAS-cog units | mean effect sizes in moderate subjects over 24 weeks (severity as interaction term, CDR-moderate, 60 mg dose): −2.7 to −3.7 ADAS-cog units
